Measured values: the supplement of paper PMC10307832

Tests used:
Assay in all cases: relative viability (nuclei count vs DMSO), 5 days (fraction); higher = more cells survive
Selisistat + Crizotinib = compound: C1CC(C2=C(C1)C3=C(N2)C=CC(=C3)Cl)C(=O)N [Selisistat] + C[C@@H](Oc1cc(-c2cnn(C3CCNCC3)c2)cnc1N)c1c(Cl)ccc(F)c1Cl [Crizotinib] (partner 1 µM)
Method in brief: (§1)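 Five library-drug doses in √10 steps were combined with a fixed anchor-drug dose, or a single drug was given alone, by pin tool to lung cancer cell lines in 1536-well plates the day after seeding. Nuclei were stained and counted after 5 days. Relative viability is the nuclei count in treated wells over that in vehicle wells, taken as the median of duplicate plates.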

Selisistat + Decitabine = compound: C1CC(C2=C(C1)C3=C(N2)C=CC(=C3)Cl)C(=O)N [Selisistat] + Nc1ncn([C@H]2C[C@H](O)[C@@H](CO)O2)c(=O)n1 [Decitabine] (partner 2 µM)
Method in brief: as §1

Serdemetan + Tozasertib = compound: c1ccc2c(CCNc3ccc(Nc4ccncc4)cc3)c[nH]c2c1 [Serdemetan] + Cc1cc(Nc2cc(N3CCN(C)CC3)nc(Sc3ccc(NC(=O)C4CC4)cc3)n2)n[nH]1 [Tozasertib] (partner 0.1 µM)
Method in brief: as §1

Serdemetan + Vorinostat = compound: c1ccc2c(CCNc3ccc(Nc4ccncc4)cc3)c[nH]c2c1 [Serdemetan] + O=C(CCCCCCC(=O)Nc1ccccc1)NO [Vorinostat] (partner 1 µM)
Method in brief: as §1

| Cell Line | relative viability (Selisistat + Crizotinib; first compound 0.4 µM) | relative viability (Selisistat + Crizotinib; first compound 1.265 µM) | relative viability (Selisistat + Crizotinib; first compound 4 µM) | relative viability (Selisistat + Crizotinib; first compound 12.65 µM) | relative viability (Selisistat + Crizotinib; first compound 40 µM) | relative viability (Selisistat + Decitabine; first compound 0.4 µM) | relative viability (Selisistat + Decitabine; first compound 1.265 µM) | relative viability (Selisistat + Decitabine; first compound 4 µM) | relative viability (Selisistat + Decitabine; first compound 12.65 µM) | relative viability (Selisistat + Decitabine; first compound 40 µM) | relative viability (Serdemetan + Tozasertib; first compound 0.04 µM) | relative viability (Serdemetan + Tozasertib; first compound 0.1265 µM) | relative viability (Serdemetan + Tozasertib; first compound 0.4 µM) | relative viability (Serdemetan + Tozasertib; first compound 1.265 µM) | relative viability (Serdemetan + Tozasertib; first compound 4 µM) | relative viability (Serdemetan + Vorinostat; first compound 0.04 µM) | relative viability (Serdemetan + Vorinostat; first compound 0.1265 µM) | relative viability (Serdemetan + Vorinostat; first compound 0.4 µM) | relative viability (Serdemetan + Vorinostat; first compound 1.265 µM) | relative viability (Serdemetan + Vorinostat; first compound 4 µM) |
| --- | --- | --- | --- | --- | --- | --- | --- | --- | --- | --- | --- | --- | --- | --- | --- | --- | --- | --- | --- | --- |
| NCI-H520 | 0.743 | 0.714 | 0.873 | 0.742 | 0.796 | 0.586 | 0.512 | 0.536 | 0.592 | 0.493 | 0.42 | 0.413 | 0.441 | 0.329 | 0.313 | 0.785 | 0.688 | 0.683 | 0.438 | 0.548 |
| NCI-H1755 | 0.917 | 0.927 | 0.952 | 0.82 | 0.946 | 0.787 | 0.741 | 0.74 | 0.729 | 0.781 | 0.568 | 0.625 | 0.55 | 0.435 | 0.354 | 0.648 | 0.811 | 0.741 | 0.54 | 0.459 |
| NCI-H2023 | 0.69 | 0.651 | 0.636 | 0.68 | 0.576 | 0.233 | 0.198 | 0.219 | 0.216 | 0.202 | 0.377 | 0.359 | 0.309 | 0.298 | 0.153 | 0.48 | 0.708 | 0.53 | 0.343 | 0.258 |
| NCI-H2009 | 1.09 | 1.02 | 1 | 0.989 | 0.906 | 0.437 | 0.338 | 0.372 | 0.45 | 0.394 | 0.7 | 0.712 | 0.705 | 0.675 | 0.625 | 0.583 | 0.695 | 0.805 | 0.638 | 0.558 |
